Tests used:
Format in all cases: in vivo, rat
8-OHdG = test: Jejunal 8-OHdG concentration in rats fed a low-zinc diet; conditions: male Slc/SD rats, low-zinc diet 7 days, gavage on days 5 and 6 (0.5 mL/100 g B.W.), organs harvested 24 hours after day 6 dose; low-zinc diet group 9.31±0.29, standard diet group 6.82±0.56
Procedure: (§1) Male Slc/SD rats (4 weeks old) were used as experimental animals. (Grouping and Diet)
(§2) The rats were divided into the following groups, and the diets were as follows.
(§3) Low-zinc diet group (n=6): Free intake of a low-zinc diet (The concentration of zinc in the low-zinc diet: 3.9 mg zinc/kg diet) Note that the zinc concentration of the low-zinc diet is assumed to be 2.5 mg zinc/kg diet to 10 mg zinc/kg diet.)
(§4) From the start date of the regular breeding, the standard diet was fed to the standard diet group, and the low-zinc diet was fed to four groups including the low-zinc diet group, the low-zinc diet+precipitation fraction group, the low-zinc diet+supernatant fraction group, and the low-zinc diet+synthetic DHMBA group. They were fed by free intake. On days 5 and 6, 0.5% methyl cellulose solution was given to the standard diet group and the low-zinc diet group by gavage administration. The Pacific oyster extraction supernatant fraction was given to the low-zinc diet+supernatant fraction group by gavage administration. The Pacific oyster extraction precipitation fraction was given to the low-zinc diet+precipitation fraction group by gavage administration. The synthetic DHMBA was given to the low-zinc diet+synthetic DHMBA group by gavage administration. […]
(§5) The jejunal SOD concentration, MDA concentration, 8-OHdG concentration, ZIP4 concentration, and serum zinc concentration were measured. […]

MDA = test: Jejunal MDA concentration in rats fed a low-zinc diet; conditions: male Slc/SD rats, gavage on days 5 and 6, result in words, low-zinc diet group 6.67±0.47, standard diet group 4.53±0.26 mg/g of jejunum
Procedure: as §1, §2, §3, §4, §5

ZIP4 = test: Jejunal ZIP4 concentration in rats fed a low-zinc diet; conditions: male Slc/SD rats, low-zinc diet 7 days, gavage on days 5 and 6, organs harvested 24 hours after day 6 dose; low-zinc diet group 4.38±0.33, standard diet group 8.89±0.71
Procedure: as §1, §2, §3, §4, §5

[1] = Serum zinc concentration in rats fed a low-zinc diet; conditions: male Slc/SD rats, gavage on days 5 and 6, result in words
Procedure: as §1, §2, §3, §4, §5

Compound: COc1c(O)cc(CO)cc1O [synthetic DHMBA, 3,5-dihydroxy-4-methoxybenzyl alcohol]
- jejunal 8-OHdG concentration (8-OHdG): 7.81±0.49 ng/g of jejunum
- jejunal MDA concentration compared with low-zinc diet group (MDA): decrease in MDA
- jejunal ZIP4 concentration (ZIP4): 6.44 ± 0.76 pg/mg
- serum zinc concentration compared with low-zinc diet group [1]: significantly higher
